This series can be described thus: Multi-component pharmacokinetic study of GQD, GQD-GC and single herb extracts in rats (plasma, LC/MS/MS). Type of series: in vivo, Sprague-Dawley rats. Put shortly:
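Male Sprague-Dawley rats (220–250 g, n = 10 per group) dosed orally with GQD, GQD-GC (1.0 g crude drug/mL) or single-herb decoctions. Plasma analytes quantified by LC/MS/MS in positive-ESI SRM mode. Cmax and Tmax taken from measured data, other parameters by non-compartmental or compartmental analysis; mean ± SD.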

Setting [1] is: male, Sprague-Dawley, rat, plasma, po, 3.54 g/kg, HQ (Huang-Qin) group: rats, oral extract 3.54 g/kg, plasma, read-out: AUClast.
The mark [2] stands for this setting: male, Sprague-Dawley, rat, plasma, po, 16.5 g/kg, GQD-GC group (GQD without Gan-Cao): rats, oral 16.5 g/kg, plasma, read-out: AUClast.
The mark [3] stands for this setting: male, Sprague-Dawley, rat, plasma, po, 18.9 g/kg, GQD group: rats, oral GQD extract 18.9 g/kg, plasma, read-out: AUClast.
[4] abbreviates: male, Sprague-Dawley, rat, GQD group: rats, oral GQD extract 18.9 g/kg, plasma, read-out: Cmax.
Setting [5] is: male, Sprague-Dawley, rat, GQD group: rats, oral GQD extract 18.9 g/kg, plasma, read-out: T1/2 (converted).
Where [6] appears, read: male, Sprague-Dawley, rat, GQD group: rats, oral GQD extract 18.9 g/kg, plasma, read-out: Tmax.
[7] abbreviates: male, Sprague-Dawley, rat, GQD-GC group (GQD without Gan-Cao): rats, oral 16.5 g/kg, plasma, read-out: Cmax.
Where [8] appears, read: male, Sprague-Dawley, rat, GQD-GC group (GQD without Gan-Cao): rats, oral 16.5 g/kg, plasma, read-out: T1/2 (converted).
The mark [9] stands for this setting: male, Sprague-Dawley, rat, GQD-GC group (GQD without Gan-Cao): rats, oral 16.5 g/kg, plasma, read-out: Tmax.
Setting [10] is: male, Sprague-Dawley, rat, HQ (Huang-Qin) group: rats, oral extract 3.54 g/kg, plasma, read-out: Cmax.
[11] abbreviates: male, Sprague-Dawley, rat, HQ (Huang-Qin) group: rats, oral extract 3.54 g/kg, plasma, read-out: T1/2 (converted).
[12] abbreviates: male, Sprague-Dawley, rat, HQ (Huang-Qin) group: rats, oral extract 3.54 g/kg, plasma, read-out: Tmax.
Where [13] appears, read: male, Sprague-Dawley, rat, in vivo, GG (Ge-Gen) group: rats, oral extract 9.45 g/kg, plasma, read-out: Tmax.
Setting [14] is: male, Sprague-Dawley, rat, in vivo, GQD group: rats, oral GQD extract 18.9 g/kg, plasma, read-out: Tmax.
Setting [15] is: male, Sprague-Dawley, rat, in vivo, GQD-GC group (GQD without Gan-Cao): rats, oral 16.5 g/kg, plasma, read-out: Tmax.
Where [16] appears, read: male, Sprague-Dawley, rat, in vivo, po, 2.36 g/kg.
Setting [17] is: male, Sprague-Dawley, rat, in vivo, po, 18.9 g/kg.
Where [18] appears, read: male, Sprague-Dawley, rat, in vivo, po, 18.9 g/kg, AUClast.
[19] abbreviates: male, Sprague-Dawley, rat, plasma, po, 9.45 g/kg, GG (Ge-Gen) group: rats, oral extract 9.45 g/kg, plasma, read-out: AUClast.
Where [20] appears, read: male, Sprague-Dawley, rat, GG (Ge-Gen) group: rats, oral extract 9.45 g/kg, plasma, read-out: Cmax.
Where [21] appears, read: male, Sprague-Dawley, rat, GG (Ge-Gen) group: rats, oral extract 9.45 g/kg, plasma, read-out: T1/2 (converted).
Setting [22] is: male, Sprague-Dawley, rat, GG (Ge-Gen) group: rats, oral extract 9.45 g/kg, plasma, read-out: Tmax.
[23] abbreviates: male, Sprague-Dawley, rat, in vivo, po, 9.45 g/kg.
Setting [24] is: male, Sprague-Dawley, rat, in vivo, po, 16.5 g/kg.

Like-named read-outs stand apart in the source and are kept apart here.

With `O=C(O)[C@H]1O[C@@H](Oc2cc3oc(-c4ccccc4)cc(=O)c3c(O)c2O)[C@H](O)[C@@H](O)[C@@H]1O` [Compound 17, baicalin], the AUC(0-t) by setting is: under setting [1], 52600 ± 35500 ng·h/mL; (male, Sprague-Dawley, rat, plasma, po, 3.54 g/kg, Huang-Qin group: rats, oral 3.54 g/kg, plasma, read-out: AUClast) 52600 ± 35500 ng·h/mL; under setting [2], 39600 ± 2610 ng·h/mL; under setting [3], 22300 ± 11200 ng·h/mL. The highest concentration (Cmax) under setting [4] was found to be 1180 ± 870 ng/mL, the Cmax under setting [7] stood at 1890 ± 988 ng/mL and the Cmax under setting [10] was found to be 4040 ± 584 ng/mL. Moreover, the half-life reads like this: under setting [5], 288 ± 196 min; under setting [8], 320 ± 153 min; under setting [11], 199 ± 64.8 min. Further, the time to peak (Tmax) came out at 437 ± 82.8 min under setting [6], 463 ± 80.4 min under setting [9] and 467 ± 59.4 min under setting [12]. The “decrease of Cmax in the GQD group compared with the Huang-Qin group” value (rats, oral, GQD vs Huang-Qin) is “at least 30%”.
On to `O=c1c(-c2ccc(O)cc2)coc2cc(O[C@@H]3O[C@H](CO)[C@@H](O)[C@H](O)[C@H]3O)ccc12` [Compound 1, Daidzin], for which the AUC(0-t) reads like this: (male, Sprague-Dawley, rat, in vivo, po, 9.45 g/kg, GG (Ge-Gen) group: rats, oral extract 9.45 g/kg, plasma, read-out: AUClast) 290 ± 42.2 ng·h/mL; (male, Sprague-Dawley, rat, in vivo, po, 9.45 g/kg, Ge-Gen group: rats, oral 9.45 g/kg, plasma, read-out: AUClast) 290 ± 42.2 ng·h/mL; (male, Sprague-Dawley, rat, in vivo, po, 16.5 g/kg, GQD-GC group (GQD without Gan-Cao): rats, oral 16.5 g/kg, plasma, read-out: AUClast) 282 ± 61.6 ng·h/mL; (male, Sprague-Dawley, rat, in vivo, po, 18.9 g/kg, GQD group: rats, oral GQD extract 18.9 g/kg, plasma, read-out: AUClast) 346 ± 30.3 ng·h/mL; (male, Sprague-Dawley, rat, in vivo, po, 18.9 g/kg, GQD group: rats, oral GQD 18.9 g/kg (1.5-fold of clinical dosage), plasma, read-out: AUClast) more than 300 ng·h/mL. Also, the Cmax runs as follows: (male, Sprague-Dawley, rat, in vivo, GG (Ge-Gen) group: rats, oral extract 9.45 g/kg, plasma, read-out: Cmax) 58 ± 0.77 ng/mL; (male, Sprague-Dawley, rat, in vivo, GQD group: rats, oral GQD extract 18.9 g/kg, plasma, read-out: Cmax) 27.4 ± 3.34 ng/mL; (male, Sprague-Dawley, rat, in vivo, GQD-GC group (GQD without Gan-Cao): rats, oral 16.5 g/kg, plasma, read-out: Cmax) 52.4 ± 2.21 ng/mL. Further, the half-life is, setting by setting: (male, Sprague-Dawley, rat, in vivo, GG (Ge-Gen) group: rats, oral extract 9.45 g/kg, plasma, read-out: T1/2 (converted)) 44.4 ± 19.8 min; (male, Sprague-Dawley, rat, in vivo, GQD group: rats, oral GQD extract 18.9 g/kg, plasma, read-out: T1/2 (converted)) 238 ± 61.2 min; (male, Sprague-Dawley, rat, in vivo, GQD-GC group (GQD without Gan-Cao): rats, oral 16.5 g/kg, plasma, read-out: T1/2 (converted)) 97.8 ± 8.4 min. Besides, the Tmax is 22.8 ± 2.4 min under setting [13], 52.8 ± 6.6 min under setting [14] and 34.8 ± 14.4 min under setting [15]. Further, the “bioavailability in the GQD group compared with the Ge-Gen group” value (rats, oral) was “higher”.
As for `COc1c(O)c(O[C@@H]2O[C@H](C(=O)O)[C@@H](O)[C@H](O)[C@H]2O)cc2oc(-c3ccccc3)cc(=O)c12` [Compound 38, lateriflorein 7-O-glucuronide], the AUC(0-t) under setting [1] stood at 1170 ± 342 ng·h/mL; the AUC(0-t) under setting [2] came out at 599 ± 215 ng·h/mL; the AUC(0-t) under setting [3] worked out at 700 ± 77 ng·h/mL; the AUC(0-t) (male, Sprague-Dawley, rat, plasma, po, 18.9 g/kg, GQD group: rats, oral GQD 18.9 g/kg (1.5-fold of clinical dosage), plasma, read-out: AUClast) was more than 700 ng·h/mL. Further, the peak concentration (Cmax) under setting [4] was found to be 48.8 ± 3.88 ng/mL, the peak concentration (Cmax) under setting [7] is 59.4 ± 5.34 ng/mL and the Cmax under setting [10] amounted to 213 ± 34.3 ng/mL. Moreover, the half-life is 260 ± 194 min under setting [5], 171 ± 32.4 min under setting [8] and 94.8 ± 8.4 min under setting [11]. In addition, the Tmax came to 26.4 ± 232 min under setting [6], 20.4 ± 4.2 min under setting [9] and 18.6 ± 1.8 min under setting [12].
Turning to `O=c1cc(-c2ccccc2)oc2cc(O)c(O)c(O)c12` [Compound 12, baicalein], the AUC(0-t) under setting [1] worked out at 19.5 ± 11.2 ng·h/mL and the AUC(0-t) under setting [3] is 108 ± 47 ng·h/mL. In addition, the maximum concentration (Cmax) came to 11.1 ± 0.66 ng/mL under setting [4] and 3.46 ± 0.34 ng/mL under setting [10]. For the same compound, the half-life by setting is: under setting [5], 454 ± 12.6 min; under setting [11], 359 ± 73.8 min. Moreover, the Tmax runs as follows: under setting [6], 25.2 ± 1.8 min; under setting [12], 60 ± 38.4 min.
Consider `O=C1C[C@@H](c2ccc(O[C@@H]3O[C@H](CO)[C@@H](O)[C@H](O)[C@H]3O)cc2)Oc2cc(O)ccc21` [Compound 26, liquiritin], for which, under setting [16], the Cmax was 18.6 ± 7.53 ng/mL, the T1/2 was 7.84 ± 0.38 h and the time of peak concentration (Tmax) was 80.4 ± 180 min. The AUC(0-t) (male, Sprague-Dawley, rat, in vivo, po, 2.36 g/kg, AUClast) was determined as 237 ± 92.4 ng·h/mL. For the same compound, under setting [17], the AUClast was 416.94 ± 210.31 ng·h/mL, the maximum concentration (Cmax) amounted to 20.8 ± 1.86 ng/mL, the time to peak (Tmax) is 150 ± 286 min and the half-life was 723 ± 69.6 min. Under setting [18], the AUC(0-t) is more than 300 ng·h/mL. In addition, the “plasma concentrations, effect of GQD compared with Gan-Cao” value (rat, in vivo, po) is given as “improved”.
On to `COc1ccc(C2=CC(=O)OC2Cc2ccc(O)cc2)c(OC2OC(CO)C(O)C(O)C2O)c1` [Compound 41, (4S)-puerol B 2″-O-glucopyranoside], for which the AUC(0-t) by setting is: under setting [19], 67.3 ± 28.7 ng·h/mL; under setting [2], 18.9 ± 4.09 ng·h/mL; under setting [3], 37.5 ± 21.1 ng·h/mL. For the same compound, the Cmax runs as follows: under setting [20], 14.9 ± 9.76 ng/mL; under setting [4], 10.9 ± 9.4 ng/mL; under setting [7], 11.1 ± 4.41 ng/mL. Also, the half-life is 559 ± 131 min under setting [21], 479 ± 173 min under setting [5] and 387 ± 310 min under setting [8]. Also, the Tmax was 31.2 ± 66.6 min under setting [22], 31.2 ± 15.6 min under setting [6] and 31.8 ± 72 min under setting [9].
Regarding `O=c1c(-c2ccc(O)cc2)coc2c(C3OC(COC4OCC(O)(CO)C4O)C(O)C(O)C3O)c(O)cc(O)c12` (stereo not drawn) [Compound 6, genistein 8-C-apiofuranosyl(1,6)glucoside], the AUC(0-t) under setting [19] was 168 ± 33.6 ng·h/mL, the AUC(0-t) under setting [2] worked out at 96.3 ± 105 ng·h/mL and the AUC(0-t) under setting [3] was 98.8 ± 24.8 ng·h/mL. In addition, the highest concentration (Cmax) worked out at 11.3 ± 1.8 ng/mL under setting [20], 11.3 ± 3.32 ng/mL under setting [4] and 12.1 ± 7.87 ng/mL under setting [7]. The half-life reads like this: under setting [21], 334 ± 209 min; under setting [5], 406 ± 206 min; under setting [8], 129 ± 102 min. For the same compound, the Tmax by setting is: under setting [22], 43.8 ± 18 min; under setting [6], 503 ± 13.8 min; under setting [9], 93.6 ± 91.8 min.
In the case of `O=c1c(-c2ccc(O)cc2)coc2cc(O)ccc12` [Compound 3, daidzein], the highest concentration (Cmax) under setting [23] was determined as 188 ± 10.4 ng/mL, the highest level under setting [24] (Cmax) was 83.5 ± 3.23 ng/mL and the concentration under setting [17] peaked (Cmax) at 186 ± 36.2 ng/mL. The half-life is, setting by setting: under setting [23], 307 ± 52.2 min; under setting [24], 257 ± 88.2 min; under setting [17], 374 ± 81.6 min. Besides, the AUC(0-t) by setting is: (male, Sprague-Dawley, rat, in vivo, po, 9.45 g/kg, AUClast) 2640 ± 1150 ng·h/mL; (male, Sprague-Dawley, rat, in vivo, po, 16.5 g/kg, AUClast) 674 ± 604 ng·h/mL; under setting [18], 3050 ± 998 ng·h/mL. For the same compound, the Tmax by setting is: under setting [13], 480 ± 8.4 min; under setting [14], 480 ± 770 min; under setting [15], 15 ± 19.2 min.

The record behind these values is PMC6018403 (Frontiers in Pharmacology, 2018).
